“And” between values parts separate entries of the source, which are not always exact repeats. Equal entries are not always repeated. Where two headings read alike, the source gives them in different places.

Data on five compounds can be found in patent US8912121B2, “Herbicidal compositions comprising 4-amino-3-chloro-5-fluoro-6-(4-chloro-2-fluoro-3-methoxyphenyl)pyridine-2-carboxylic acid or a derivative thereof and certain PS II inhibitors” (Dow Agrosciences LLC, priority 2012, dated 2014).

What all share (experiment): Postemergence foliar-applied mixtures, direct seeded rice, greenhouse
In assay [1] the test system is IPOHE (Ipomoea hederacea, ivyleaf morningglory). Format: in vivo, Ipomoea hederacea Jacq. As to conditions: post-emergence. The gist of the method: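 Greenhouse plants in loam/grit soil (about 29/26°C, 14 h photoperiod) sprayed post-emergence at first to fourth true leaf stage at 187 L/ha. Compound A dosed as acid equivalent, partner PSII herbicides as active ingredient, alone and in mixtures, in spray solutions containing 1.25% crop oil concentrate.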

Assay [2] deals with COMBE (Commelina benghalensis, Benghal dayflower). It is filed as in vivo, Commelina benghalensis L. As to conditions: 20 DAA. The text has this:
Seeds or nutlets of the desired test plant species were planted in a soil matrix prepared by mixing a loam or sandy loam soil (e.g., 28.6 percent silt, 18.8 percent clay, and 52.6 percent sand, with a pH of about 5.8 and an organic matter content of about 1.8 percent) and calcareous grit in an 80 to 20 ratio. The soil matrix was contained in plastic pots with a volume of 1 quart and a surface area of 83.6 square centimeters (cm^2). When required to ensure good germination and healthy plants, a fungicide treatment and/or other chemical or physical treatment was applied. The plants were grown for 8-22 days in a greenhouse with an approximate 14 h photoperiod which was maintained at about 29° C. during the day and 26° C. during the night. Nutrients (Peters Excel® 15-5-15 5-Ca 2-Mg and iron chelate) were applied in the irrigation solution as needed and water was added on a regular basis. Supplemental lighting was provided with overhead metal halide 1000-Watt lamps as necessary. The plants were employed for testing when they reached the first through fourth true leaf stage. […]
(§1) Treatment requirements were calculated based upon the rates being tested, the concentration of active ingredient or acid equivalent in the formulation, and a 12 mL application volume at a rate of 187 L/ha.
For treatments comprised of formulated compounds, measured amounts of compounds were placed individually in 25 mL glass vials and diluted in a volume of 1.25% (v/v) Agri-Dex® crop oil concentrated to obtain 12× stock solutions. […]
(§2) For treatments comprised of formulated and technical compounds, weighed amounts of the technical materials were placed individually in 25 mL glass vials and dissolved in a volume of 97:3 v/v acetone/DMSO to obtain 12× stock solutions, and measured amounts of the formulated compounds were placed individually in 25 mL glass vials and diluted in a volume of 1.5% (v/v) crop oil concentrate or water to obtain 12× stock solutions. […]

The test system of assay [3] is ECHCO (Echinochloa colona, junglerice). It is filed as in vivo, Echinochloa colona (L.) Link.
Description: (§3) Seeds or nutlets of the desired test plant species were planted in a soil matrix prepared by mixing a loam or sandy loam soil (e.g., 28.6 percent silt, 18.8 percent clay, and 52.6 percent sand, with a pH of about 5.8 and an organic matter content of about 1.8 percent) and calcareous grit in an 80 to 20 ratio. The soil matrix was contained in plastic pots with a volume of 1 quart and a surface area of 83.6 square centimeters (cm^2). When required to ensure good germination and healthy plants, a fungicide treatment and/or other chemical or physical treatment was applied. The plants were grown for 8-22 days in a greenhouse with an approximate 14 h photoperiod which was maintained at about 29° C. during the day and 26° C. during the night. Nutrients (Peters Excel® 15-5-15 5-Ca 2-Mg and iron chelate) were applied in the irrigation solution as needed and water was added on a regular basis. Supplemental lighting was provided with overhead metal halide 1000-Watt lamps as necessary. The plants were employed for testing when they reached the first through fourth true leaf stage.
(§4) Treatments consisted of the acid or esters of 4-amino-3-chloro-5-fluoro-6-(4-chloro-2-fluoro-3-methoxy-phenyl) pyridine-2-carboxylic acid (Compound A), each formulated as an SC (suspension concentrate), and various herbicidal components alone and in combination. Forms of compound A were applied on an acid equivalent basis.
(§5) Other herbicidal components were applied on an active ingredient basis and included Photosystem II (PSII)-inhibiting herbicides propanil formulated as Stam® M4 EC, bentazon-sodium formulated as Basagran®, atrazine formulated as Atrazine 90 WDG, bromoxynil octanoate ester formulated as Buctril®, simetryne (technical grade material), simazine formulated as Princep® Caliber 90, ioxynil (technical grade material), cyanazine (technical grade material), and hexazinone (technical grade material).
as §1
(§6) For treatments comprised of formulated compounds, measured amounts of compounds were placed individually in 25 mL glass vials and diluted in a volume of 1.25% (v/v) Agri-Dex® crop oil concentrated to obtain 12× stock solutions. […] Application solutions were prepared by adding an appropriate amount of each stock solution (e.g., 1 mL) and diluted to the appropriate final concentrations with the addition of 10 mL of an aqueous mixture of 1.25% (v/v) crop oil concentrate so that the final spray solutions contained 1.25+/−0.05% (v/v) crop oil concentrate.
(§7) For treatments comprised of technical compounds, weighed amounts can be placed individually in 25 mL glass vials and dissolved in a volume of 97:3 v/v acetone/DMSO to obtain 12× stock solutions. […] Application solutions can be prepared by adding an appropriate amount of each stock solution (e.g., 1 mL) and diluted to the appropriate final concentrations with the addition of 10 mL of an aqueous mixture of 1.5% (v/v) crop oil concentrate so that the final spray solutions contain 1.25% (v/v) crop oil concentrate. When technical materials are used, the concentrated stock solutions can be added to the spray solutions so that the final acetone and DMSO concentrations of the application solutions are 16.2% and 0.5%, respectively.
as §2

Assay [4] concerns CYPIR (Cyperus iria, rice flatsedge). Format: in vivo, Cyperus iria L.
Description: as §3, §4, §5, §1, §6, §7, §2

Take `COc1c(Cl)ccc(-c2nc(C(=O)OCc3ccccc3)c(Cl)c(N)c2F)c1F` [Compound A Benzyl Ester, benzyl ester of 4-amino-3-chloro-5-fluoro-6-(4-chloro-2-fluoro-3-methoxy-phenyl)pyridine-2-carboxylic acid]: the pest or weed control at 32 g/ha in assay [1] (480 h, read-out: Visual Weed Control (%) Obs, 32 g ae/ha, 20 DAA) came to 55%; in assay [1] (504 h, read-out: Visual Weed Control (%) Obs, 32 g ae/ha, 21 DAA), 60%. In assay [1] (504 h, read-out: Visual Weed Control (%) Obs, 4.38 g ae/ha, 21 DAA), the pest or weed control at 4.38 g/ha was found to be 0%. Also, the pest or weed control at 8 g/ha in assay [1] (504 h, read-out: Visual Weed Control (%) Obs, 8 g ae/ha, 21 DAA) was determined as 10%. Further, the pest or weed control at 8.75 g/ha in assay [1] (504 h, read-out: Visual Weed Control (%) Obs, 8.75 g ae/ha, 21 DAA) was 15%. The pest or weed control at 16 g/ha in assay [1] (504 h, read-out: Visual Weed Control (%) Obs, 16 g ae/ha, 21 DAA) came out at 25%. Also, the pest or weed control at 17.5 g/ha in assay [1] (504 h, read-out: Visual Weed Control (%) Obs, 17.5 g ae/ha, 21 DAA) stood at 38%; in assay [1] (504 h, read-out: Visual Weed Control (%) Obs, 17.5 g ae/ha, 21 DAA (second set, r27-r31)), 38%. In addition, the pest or weed control at 35 g/ha in assay [1] (504 h, read-out: Visual Weed Control (%) Obs, 35 g ae/ha, 21 DAA) worked out at 55%. For the same compound, the “Visual Weed Control (%) Obs” value in assay [2] (6 g ae/ha) was 80% and 70%; in assay [3] (4.38 g ae/ha, 21 DAA), 60%; in assay [3] (8 g ae/ha, 20 DAA), 65%; in assay [3] (8 g ae/ha, 21 DAA), 75% and 50%; in assay [3] (8.75 g ae/ha, 21 DAA) it was 68%; in assay [3] (16 g ae/ha, 20 DAA), 85%. Moreover, the “Visual Weed Control (%) Obs” value in assay [3] (16 g ae/ha, 21 DAA) is 85% and 65%; in assay [3] (17.5 g ae/ha, 21 DAA) it was 83%; in assay [3] (32 g ae/ha, 20 DAA) it was 95%; in assay [3] (32 g ae/ha, 21 DAA), 95% and 85%; in assay [4] (8 g ae/ha, 20 DAA), 70%; in assay [4] (8 g ae/ha, 22 DAA) it was 10%. Further, the “Visual Weed Control (%) Obs” value in assay [4] (16 g ae/ha, 20 DAA) was determined as 90%; in assay [4] (16 g ae/ha, 22 DAA) it was 60%; in assay [4] (32 g ae/ha, 20 DAA), 90%.

Turning to `CCC(=O)Nc1ccc(Cl)c(Cl)c1` [Propanil, N-(3,4-dichlorophenyl)propanamide, reference compound], the pest or weed control at 3360 g/ha in assay [1] (480 h, 3360 g ai/ha, 20 DAA, read-out: Visual Weed Control (%) Obs) is 40%. In addition, the pest or weed control at 420 g/ha in assay [1] (504 h, 420 g ai/ha, 21 DAA, read-out: Visual Weed Control (%) Obs) was 0%. The pest or weed control at 840 g/ha in assay [1] (504 h, 840 g ai/ha, 21 DAA, read-out: Visual Weed Control (%) Obs) stood at 0%. Besides, the pest or weed control at 1680 g/ha in assay [1] (504 h, 1680 g ai/ha, 21 DAA, read-out: Visual Weed Control (%) Obs) turned out to be 0%. The “Visual Weed Control (%) Obs” value is given as 10% in assay [2] (3360 g ai/ha); 10% in assay [3] (420 g ai/ha, 21 DAA); 25% in assay [3] (840 g ai/ha, 21 DAA); 25% in assay [3] (1680 g ai/ha, 21 DAA).

For `COc1c(Cl)ccc(-c2nc(C(=O)O)c(Cl)c(N)c2F)c1F` [Compound A Acid, 4-amino-3-chloro-6-(4-chloro-2-fluoro-3-methoxyphenyl)-5-fluoropyridine-2-carboxylic acid], the pest or weed control at 19.4 g/ha in assay [1] (480 h, 19.4 g ae/ha, 20 DAA, read-out: Visual Weed Control (%) Obs) turned out to be 15%. For the same compound, the pest or weed control at 21.2 g/ha in assay [1] (480 h, 21.2 g ae/ha, 20 DAA, read-out: Visual Weed Control (%) Obs) came out at 35%. For the same compound, the pest or weed control at 42.4 g/ha in assay [1] (480 h, 42.4 g ae/ha, 20 DAA, read-out: Visual Weed Control (%) Obs) is 55%. In assay [1] (504 h, 4.38 g ae/ha, 21 DAA, read-out: Visual Weed Control (%) Obs), the pest or weed control at 4.38 g/ha turned out to be 15%. In assay [1] (504 h, 8.75 g ae/ha, 21 DAA, read-out: Visual Weed Control (%) Obs), the pest or weed control at 8.75 g/ha worked out at 35%. In addition, the “Visual Weed Control (%) Obs” value in assay [3] (4.38 g ae/ha, 21 DAA) was 43%; in assay [3] (4.38 g ae/ha, 22 DAA), 20%; in assay [3] (8.75 g ae/ha, 21 DAA), 63%; in assay [4] (4.38 g ae/ha, 22 DAA), 15%.

With `CCNc1nc(Cl)nc(NCC)n1` [Simazine, 6-chloro-N,N′-diethyl-1,3,5-triazine-2,4-diamine, reference compound], the “Visual Weed Control (%) Obs” value in assay [3] (560 g ai/ha, 20 DAA) is on record as 0%; in assay [3] (1120 g ai/ha, 20 DAA), 0%; in assay [3] (2240 g ai/ha, 20 DAA), 0%; in assay [4] (560 g ai/ha, 20 DAA), 0%; in assay [4] (1120 g ai/ha, 20 DAA) it was 0%; in assay [4] (2240 g ai/ha, 20 DAA), 30%.

With `CCNc1nc(Cl)nc(NC(C)C)n1` [Atrazine, 6-chloro-N-ethyl-N′-(1-methylethyl)-1,3,5-triazine-2,4-diamine, reference compound], the “Visual Weed Control (%) Obs” value in assay [3] (280 g ai/ha, 22 DAA) is on record as 10%; in assay [3] (560 g ai/ha, 22 DAA) it was 10%; in assay [3] (1120 g ai/ha, 22 DAA), 60%; in assay [4] (280 g ai/ha, 22 DAA), 0%; in assay [4] (560 g ai/ha, 22 DAA), 100%; in assay [4] (1120 g ai/ha, 22 DAA), 80%.
